Test results as given in the supplement of paper PMC4862054.

How the values were obtained:
Assay in all cases: normalised response (% of control), CellTiter-Glo; higher = more viable cells (100 = DMSO, 0 = benzethonium chloride kill control)
Conditions in all cases: incubation time: 72 h
MDA-MB-436 = system: MDA-MB-436
Method in brief: (§1)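 Each entry is the normalised signal at a single concentration within a series. The series comprised 5 concentrations in 10-fold steps over a compound-specific 10,000-fold range, placed in 384-well plates into which breast cancer cell lines were seeded as 20 µl suspension and incubated 72 h. CellTox Green (485/520 nm) fluorescence and then CellTiter-Glo luminescence were read, with signals normalised per plate to 0.1 % DMSO (100) and a positive kill control (0).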

MCF-10A = system: MCF-10A
Method in brief: as §1

CAL-85-1 = system: CAL-85-1
Method in brief: as §1

HCC1599 = system: HCC1599
Method in brief: as §1

Hs578T = system: Hs578T
Method in brief: as §1

MDA-MB-453 = system: MDA-MB-453
Method in brief: as §1

BT-474 = system: BT-474
Method in brief: as §1

MDA-MB-231 = system: MDA-MB-231
Method in brief: as §1

HCC1937 = system: HCC1937
Method in brief: as §1

CAL-120 = system: CAL-120
Method in brief: as §1

CAL-51 = system: CAL-51
Method in brief: as §1

DU-4475 = system: DU-4475
Method in brief: as §1

HCC1143 = system: HCC1143
Method in brief: as §1

HDQ-P1 = system: HDQ-P1
Method in brief: as §1

MFM-223 = system: MFM-223
Method in brief: as §1

CAL-148 = system: CAL-148
Method in brief: as §1

CC[C@@]1(O)C(=O)OCc2c1cc1n(c2=O)Cc2cc3c(CN(C)C)c(O)ccc3nc2-1 [Topotecan] (100 nM)
normalised response (MDA-MB-436): 75.2%
normalised response (MCF-10A): 90.2%
normalised response (CAL-85-1): 85.7%
normalised response (HCC1599): 65.5%
normalised response (Hs578T): 101%
normalised response (MDA-MB-453): 133%
normalised response (BT-474): 91.9%
normalised response (MDA-MB-231): 92.8%
normalised response (HCC1937): 95.7%
normalised response (CAL-120): 95.9%
normalised response (CAL-51): 98.2%
normalised response (DU-4475): 77.9%
normalised response (HCC1143): 92.9%
normalised response (HDQ-P1): 95.7%
normalised response (MFM-223): 97.4%
normalised response (CAL-148): 62.4%
